Data taken from patent US11814367B2, “Inhibitors of glycogen synthase 1 (GYS1) and methods of use thereof” (Maze Therapeutics, Inc., priority 2021, dated 2023).

How the values were obtained:
[1] = biological target: hGYS2 enzyme (recombinant hGYS2/GN1 protein) (Homo sapiens (Human), UniProt P54840); assay: GYS2 coupled enzyme assay (PK/LDH); assay type: biochemical; settings: geometric mean of at least 2 assay runs on separate days, read-out: Avg_IC50
Procedure, shortened: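 IC50 came from Hill fits of duplicate percent inhibition, based on control-normalized slopes of 340 nm NADH decline read each minute for 10 min. The reaction held recombinant hGYS2/GN1 (200 nM) with glycogen, UDP-glucose, G6P and PEP, plus PK/LDH coupling at pH 7.5 and 2.5% DMSO.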

[2] = biological target: hGYS1 enzyme (recombinant hGYS1/GN1 protein) (Homo sapiens (Human), UniProt P13807); assay: GYS1 coupled enzyme assay (PK/LDH); assay type: biochemical; settings: hGYS1/GN1 50 nM, UDP-Glucose 0.8 mM, G6P 1 mM; geometric mean of at least 2 runs
Sequence of hGYS1 enzyme (recombinant hGYS1/GN1 protein) (P13807 whole entry): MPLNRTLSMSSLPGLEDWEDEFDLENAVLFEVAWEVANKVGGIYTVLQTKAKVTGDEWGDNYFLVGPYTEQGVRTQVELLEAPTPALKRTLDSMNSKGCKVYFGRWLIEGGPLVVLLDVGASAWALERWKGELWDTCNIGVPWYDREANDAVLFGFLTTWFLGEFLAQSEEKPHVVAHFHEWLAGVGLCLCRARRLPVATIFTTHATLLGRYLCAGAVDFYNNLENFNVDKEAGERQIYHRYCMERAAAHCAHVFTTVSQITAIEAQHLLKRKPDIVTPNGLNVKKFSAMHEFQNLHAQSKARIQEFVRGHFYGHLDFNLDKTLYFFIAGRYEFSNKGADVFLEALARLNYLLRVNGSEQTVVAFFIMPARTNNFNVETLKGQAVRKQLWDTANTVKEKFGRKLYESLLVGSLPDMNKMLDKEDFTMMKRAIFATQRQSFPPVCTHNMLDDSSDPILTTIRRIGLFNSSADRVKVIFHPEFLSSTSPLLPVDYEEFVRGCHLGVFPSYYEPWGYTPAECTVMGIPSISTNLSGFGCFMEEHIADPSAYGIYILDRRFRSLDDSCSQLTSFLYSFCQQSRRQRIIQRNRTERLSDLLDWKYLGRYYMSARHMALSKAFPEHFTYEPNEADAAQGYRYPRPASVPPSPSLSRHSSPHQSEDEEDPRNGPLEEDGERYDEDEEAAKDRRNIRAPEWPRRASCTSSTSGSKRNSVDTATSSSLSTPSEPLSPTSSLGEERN
Sequence of hGYS1 enzyme (recombinant hGYS1/GN1 protein) (P46976 whole entry partner): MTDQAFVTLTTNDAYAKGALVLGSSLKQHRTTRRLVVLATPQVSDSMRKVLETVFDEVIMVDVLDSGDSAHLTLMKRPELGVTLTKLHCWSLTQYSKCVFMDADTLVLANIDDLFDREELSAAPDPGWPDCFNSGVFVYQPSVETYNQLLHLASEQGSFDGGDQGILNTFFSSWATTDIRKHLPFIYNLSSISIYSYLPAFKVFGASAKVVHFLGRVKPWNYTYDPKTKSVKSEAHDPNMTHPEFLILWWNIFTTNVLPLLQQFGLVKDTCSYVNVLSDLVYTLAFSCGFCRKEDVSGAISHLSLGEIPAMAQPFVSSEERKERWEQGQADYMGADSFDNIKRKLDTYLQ

Sequence of hGYS2 enzyme (recombinant hGYS2/GN1 protein) (P54840 whole entry): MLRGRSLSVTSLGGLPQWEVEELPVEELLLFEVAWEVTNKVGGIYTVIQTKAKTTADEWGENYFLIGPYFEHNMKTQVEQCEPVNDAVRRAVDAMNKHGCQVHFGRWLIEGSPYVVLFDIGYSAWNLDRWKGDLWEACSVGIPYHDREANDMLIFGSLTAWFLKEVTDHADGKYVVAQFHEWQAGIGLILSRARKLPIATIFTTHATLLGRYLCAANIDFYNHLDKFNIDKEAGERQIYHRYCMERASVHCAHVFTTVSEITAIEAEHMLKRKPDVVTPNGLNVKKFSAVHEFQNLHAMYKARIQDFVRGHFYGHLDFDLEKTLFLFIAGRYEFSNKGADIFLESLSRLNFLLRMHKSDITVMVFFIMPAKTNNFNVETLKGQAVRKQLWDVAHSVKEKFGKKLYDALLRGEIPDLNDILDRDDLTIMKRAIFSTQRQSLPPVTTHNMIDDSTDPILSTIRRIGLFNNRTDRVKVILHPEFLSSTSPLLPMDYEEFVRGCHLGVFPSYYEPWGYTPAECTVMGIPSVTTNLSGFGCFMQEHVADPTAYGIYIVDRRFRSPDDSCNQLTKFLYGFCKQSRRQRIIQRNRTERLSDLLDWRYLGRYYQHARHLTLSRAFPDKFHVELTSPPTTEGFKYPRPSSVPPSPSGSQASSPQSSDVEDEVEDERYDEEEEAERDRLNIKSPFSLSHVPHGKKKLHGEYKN
Sequence of hGYS2 enzyme (recombinant hGYS2/GN1 protein) (P46976 whole entry partner): as the sequence (P46976 whole entry partner) above

Compound | IC50 [1] [nM] | IC50 [2] [nM]
CC(C)c1ccc([C@@H](NC(=O)[C@@H]2C[C@@H](F)CN2C(=O)CNC2(C)COC2)c2ccccc2)cc1 [Compound 193, (2S,4R)-4-fluoro-1-{2-[(3-methyloxetan-3-yl)amino]acetyl}-N-[(S)-phenyl[4-(propan-2-yl)phenyl]methyl]pyrrolidine-2-carboxamide] | > 100000 | 303
CC(C)c1ccc([C@@H](NC(=O)[C@@H]2C[C@@H](F)CN2C(=O)Cc2cnco2)c2ccccc2)cc1 [Compound 195, (2S,4R)-4-fluoro-1-[2-(1,3-oxazol-5-yl)acetyl]-N-[(S)-phenyl[4-(propan-2-yl)phenyl]methyl]pyrrolidine-2-carboxamide] | > 100000 | 44
CC(=O)N[C@@H](CCC(=O)O)C(=O)N1C[C@H](F)C[C@H]1C(=O)N[C@@H](c1ccccc1)c1ccc(C(C)C)cc1 [Compound 196, (4S)-4-acetamido-5-[(2S,4R)-4-fluoro-2-{[(S)-phenyl[4-(propan-2-yl)phenyl]methyl]carbamoyl}pyrrolidin-1-yl]-5-oxopentanoic acid] | > 100000 | 143
CC(=O)N[C@H](CCC(=O)O)C(=O)N1C[C@H](F)C[C@H]1C(=O)N[C@@H](c1ccccc1)c1ccc(C(C)C)cc1 [Compound 197, (4R)-4-acetamido-5-[(2S,4R)-4-fluoro-2-{[(S)-phenyl[4-(propan-2-yl)phenyl]methyl]carbamoyl}pyrrolidin-1-yl]-5-oxopentanoic acid] | > 100000 | 128
Cc1nnnn1CC(=O)N1C[C@H](F)C[C@H]1C(=O)N[C@@H](c1ccccc1)c1ccc(C(C)C)cc1 [Compound 226, (2RS,4R)-4-fluoro-1-[2-(5-methyl-1H-1,2,3-tetrazol-1-yl)acetyl]-N-[(S)-phenyl[4-(propan-2-yl)phenyl]methyl]pyrrolidine-2-carboxamide] | > 100000 | 83
CC(C)c1ccc([C@@H](NC(=O)[C@@H]2C[C@@H](F)CN2C(=O)Cc2ccon2)c2ccccc2)cc1 [Compound 231, (2S,4R)-4-fluoro-1-[2-(1,2-oxazol-3-yl)acetyl]-N-[(S)-phenyl[4-(propan-2-yl)phenyl]methyl]pyrrolidine-2-carboxamide] | > 100000 | 105
Cc1n[nH]c(CC(=O)N2C[C@H](F)C[C@H]2C(=O)N[C@@H](c2ccccc2)c2ccc(C(C)C)cc2)n1 [Compound 232, (2S,4R)-4-fluoro-1-[2-(3-methyl-1H-1,2,4-triazol-5-yl)acetyl]-N-[(S)-phenyl[4-(propan-2-yl)phenyl]methyl]pyrrolidine-2-carboxamide] | > 100000 | 25
CC(C)c1ccc([C@@H](NC(=O)[C@@H]2C[C@@H](F)CN2C(=O)C(C)(C)c2ncn[nH]2)c2ccccc2)cc1 [Compound 233, (2S,4R)-4-fluoro-1-[2-methyl-2-(1H-1,2,4-triazol-5-yl)propanoyl]-N-[(S)-phenyl[4-(propan-2-yl)phenyl]methyl]pyrrolidine-2-carboxamide] | > 100000 | 252
CC(C)c1ccc([C@@H](NC(=O)[C@@H]2C[C@@H](F)CN2C(=O)Cc2nnc(CNC(=O)OC(C)(C)C)o2)c2ccccc2)cc1 [Compound 237, tert-butyl N-[(5-{2-[(2S,4R)-4-fluoro-2-{[(S)-phenyl[4-(propan-2-yl)phenyl]methyl]carbamoyl}pyrrolidin-1-yl]-2-oxoethyl}-1,3,4-oxadiazol-2-yl)methyl]carbamate] | > 100000 | 54
CC(C)c1ccc([C@@H](NC(=O)[C@@H]2C[C@@H](F)CN2C(=O)Cn2cn[nH]c2=O)c2ccccc2)nc1 [Compound 288, (2S,4R)-4-fluoro-1-[2-(5-oxo-4,5-dihydro-1H-1,2,4-triazol-4-yl)acetyl]-N-[(S)-phenyl[5-(propan-2-yl)pyridin-2-yl]methyl]pyrrolidine-2-carboxamide] | > 100000 | 109
CC(C)c1ccc([C@@H](NC(=O)[C@@H]2C[C@@H](F)CN2C(=O)CCn2nc3ccccn3c2=O)c2ccccc2)nc1 [Compound 289, (2S,4R)-4-fluoro-1-(3-{3-oxo-2H,3H-[1,2,4]triazolo[4,3-a]pyridin-2-yl}propanoyl)-N-[(S)-phenyl[5-(propan-2-yl)pyridin-2-yl]methyl]pyrrolidine-2-carboxamide] | > 100000 | 56
CC(C)c1ccc([C@@H](NC(=O)[C@@H]2C[C@@H](F)CN2C(=O)CNC(=O)N2CC(F)(F)C2)c2ccccc2)nc1 [Compound 290, (2S,4R)-1-{2-[(3,3-difluoroazetidine-1-carbonyl]amino]acetyl}-4-fluoro-N-[(S)-phenyl[5-(propan-2-yl)pyridin-2-yl]methyl]pyrrolidine-2-carboxamide] | > 100000 | 56

Results, then the compound that gave them:

IC50 [1] [nM] | IC50 [2] [nM] | Compound
> 100000 | 27 | CC(C)c1ccc([C@@H](NC(=O)[C@@H]2C[C@@H](F)CN2C(=O)Cc2nnc[nH]2)c2ccccc2)cc1 [Compound 194, (2S,4R)-4-fluoro-N-[(S)-phenyl[4-(propan-2-yl)phenyl]methyl]-1-[2-(4H-1,2,4-triazol-3-yl)acetyl]pyrrolidine-2-carboxamide]
> 100000 | 862 | CC(C)c1ccc([C@@H](NC(=O)[C@@H]2CCCN2C(=O)C2CC2)c2ccccc2)cc1 [Compound 203, (2S)-1-cyclopropanecarbonyl-N-[(S)-phenyl[4-(propan-2-yl)phenyl]methyl]pyrrolidine-2-carboxamide]
> 100000 | 3530 | CC(=O)N1C[C@@H](O)C[C@H]1C(=O)N[C@@H](c1ccccc1)c1ccc(C(C)C)cc1 [Compound 204, (2S,4S)-1-acetyl-4-hydroxy-N-[(S)-phenyl[4-(propan-2-yl)phenyl]methyl]pyrrolidine-2-carboxamide]
> 100000 | 3740 | CC(=O)N1C[C@H](O)C[C@H]1C(=O)N[C@@H](c1ccccc1)c1ccc(C(C)C)cc1 [Compound 205, (2S,4R)-1-acetyl-4-hydroxy-N-[(S)-phenyl[4-(propan-2-yl)phenyl]methyl]pyrrolidine-2-carboxamide]
> 100000 | 2480 | CC(=O)N1CC[C@H](O)[C@H]1C(=O)N[C@@H](c1ccccc1)c1ccc(C(C)C)cc1 [Compound 206, (2S,3S)-1-acetyl-3-hydroxy-N-[(S)-phenyl[4-(propan-2-yl)phenyl]methyl]pyrrolidine-2-carboxamide]
> 100000 | 387 | CC(=O)N1C[C@H](F)C[C@H]1C(=O)N[C@@H](c1ccccc1)c1ccc(C(C)C)cc1 [Compound 207, (2S,4R)-1-acetyl-4-fluoro-N-[(S)-phenyl[4-(propan-2-yl)phenyl]methyl]pyrrolidine-2-carboxamide]
> 100000 | 113 | CC(=O)N[C@@H](CC(N)=O)C(=O)N1C[C@H](F)C[C@H]1C(=O)N[C@@H](c1ccccc1)c1ccc(C(C)C)cc1 [Compound 208, (2S,4R)-1-[(2S)-3-carbamoyl-2-acetamidopropanoyl]-4-fluoro-N-[(S)-phenyl[4-(propan-2-yl)phenyl]methyl]pyrrolidine-2-carboxamide]
> 100000 | 91 | CC(=O)N[C@H](CC(N)=O)C(=O)N1C[C@H](F)C[C@H]1C(=O)N[C@@H](c1ccccc1)c1ccc(C(C)C)cc1 [Compound 209, (2S,4R)-1-[(2R)-3-carbamoyl-2-acetamidopropanoyl]-4-fluoro-N-[(S)-phenyl[4-(propan-2-yl)phenyl]methyl]pyrrolidine-2-carboxamide]
> 100000 | 107 | CC(C)c1ccc([C@@H](NC(=O)[C@@H]2CCCN2C(=O)CNC(=O)OC(C)(C)C)c2ccccc2)cc1 [Compound 210, tert-butyl N-{2-oxo-2-[(2S)-2-{[(S)-phenyl[4-(propan-2-yl)phenyl]methyl]carbamoyl}pyrrolidin-1-yl]ethyl}carbamate]
> 100000 | 282 | CC(C)c1ccc([C@@H](NC(=O)[C@@H]2CCCN2C(=O)CCC(N)=O)c2ccccc2)cc1 [Compound 213, (2S)-1-(3-carbamoylpropanoyl)-N-[(S)-phenyl[4-(propan-2-yl)phenyl]methyl]pyrrolidine-2-carboxamide]
> 100000 | 853 | CC(=O)N1[C@@H](C)CC[C@H]1C(=O)N[C@@H](c1ccccc1)c1ccc(C(C)C)cc1 [Compound 214, (2S,5S)-1-acetyl-5-methyl-N-[(S)-phenyl[4-(propan-2-yl)phenyl]methyl]pyrrolidine-2-carboxamide]
> 100000 | 247 | CC(C)c1ccc([C@@H](NC(=O)[C@@H]2CCCN2C(=O)Cc2ncco2)c2ccccc2)cc1 [Compound 216, (2S)-1-[2-(1,3-oxazol-2-yl)acetyl]-N-[(S)-phenyl[4-(propan-2-yl)phenyl]methyl]pyrrolidine-2-carboxamide]
> 100000 | 96 | CC(C)c1ccc([C@@H](NC(=O)[C@@H]2C[C@@H](F)CN2C(=O)CN2CCOC2=O)c2ccccc2)cc1 [Compound 217]
> 100000 | 46 | CC(C)c1ccc([C@@H](NC(=O)[C@@H]2C[C@@H](F)CN2C(=O)Cc2nnc(CN)o2)c2ccccc2)cc1 [Compound 238, (2S,4R)-1-{2-[5-(aminomethyl)-1,3,4-oxadiazol-2-yl]acetyl}-4-fluoro-N-[(S)-phenyl[4-(propan-2-yl)phenyl]methyl]pyrrolidine-2-carboxamide]
> 100000 | 1310 | CC(=O)N1CCC[C@H]1C(=O)N[C@@H](c1ccccc1)c1ccc(C(C)C)cn1 [Compound 245, (2S)-1-acetyl-N-[(S)-phenyl[5-(propan-2-yl)pyridin-2-yl]methyl]pyrrolidine-2-carboxamide]
